Experiments:
Test in all cases: radiometric filter-binding kinase assay, Kinase HotSpot
Details in all cases: compound 0.5 µM; ATP 10 µM
[1] = target: PRKCI (human) (UniProt P41743)
[2] = target: PRKX (human) (UniProt P51817)
[3] = target: NTRK2 (human) (UniProt Q16620)
[4] = target: CDK5 CDK5R1 p25 (human) (UniProt Q00535+Q15078)
[5] = target: CSNK1G2 (human) (UniProt P78368)
[6] = target: TAOK3 (human) (UniProt Q9H2K8)
[7] = target: FLT3 (human) (UniProt P36888)
[8] = target: GRK5 (human) (UniProt P34947)
[9] = target: MAPK14 (human) (UniProt Q16539)
[10] = target: CAMKK1 (human) (UniProt Q8N5S9)
[11] = target: DAPK2 (human) (UniProt Q9UIK4)
[12] = target: FGFR4 (human) (UniProt P22455)
[13] = target: PKN2 (human) (UniProt Q16513)
[14] = target: PRKACA (human) (UniProt P17612)
[15] = target: CHEK2 (human) (UniProt O96017)
[16] = target: FRK (human) (UniProt P42685)
[17] = target: MYLK2 (human) (UniProt Q9H1R3)
[18] = target: HIPK3 (human) (UniProt Q9H422)
[19] = target: NEK1 (human) (UniProt Q96PY6)
[20] = target: CAMK4 (human) (UniProt Q16566)
[21] = target: EPHA1 (human) (UniProt P21709)
[22] = target: WNK3 (human) (UniProt Q9BYP7)
[23] = target: GSK3A (human) (UniProt P49840)
[24] = target: PRKCE (human) (UniProt Q02156)
[25] = target: MELK (human) (UniProt Q14680)
[26] = target: FGR (human) (UniProt P09769)
[27] = target: CDK1 CCNA2 (human) (UniProt P06493+P20248)
[28] = target: CLK4 (human) (UniProt Q9HAZ1)
[29] = target: DYRK4 (human) (UniProt Q9NR20)
[30] = target: PASK (human) (UniProt Q96RG2)
[31] = target: ALK (human) (UniProt Q9UM73)
[32] = target: SGK2 (human) (UniProt Q9HBY8)
[33] = target: PNCK (human) (UniProt Q6P2M8)
[34] = target: MAPK3 (human) (UniProt P27361)
[35] = target: FGFR1 (human) (UniProt P11362)
[36] = target: RPS6KA2 KD1 KD2 (human) (UniProt Q15349)
[37] = target: MAPKAPK3 (human) (UniProt Q16644)
[38] = target: PAK2 (human) (UniProt Q13177)
[39] = target: PRKCH (human) (UniProt P24723)
[40] = target: MARK1 (human) (UniProt Q9P0L2)
[41] = target: LRRK2 (human) (UniProt Q5S007)
[42] = target: DSTYK (human) (UniProt Q6XUX3)

Chain of PRKCI (human) (P41743 whole entry, looked up): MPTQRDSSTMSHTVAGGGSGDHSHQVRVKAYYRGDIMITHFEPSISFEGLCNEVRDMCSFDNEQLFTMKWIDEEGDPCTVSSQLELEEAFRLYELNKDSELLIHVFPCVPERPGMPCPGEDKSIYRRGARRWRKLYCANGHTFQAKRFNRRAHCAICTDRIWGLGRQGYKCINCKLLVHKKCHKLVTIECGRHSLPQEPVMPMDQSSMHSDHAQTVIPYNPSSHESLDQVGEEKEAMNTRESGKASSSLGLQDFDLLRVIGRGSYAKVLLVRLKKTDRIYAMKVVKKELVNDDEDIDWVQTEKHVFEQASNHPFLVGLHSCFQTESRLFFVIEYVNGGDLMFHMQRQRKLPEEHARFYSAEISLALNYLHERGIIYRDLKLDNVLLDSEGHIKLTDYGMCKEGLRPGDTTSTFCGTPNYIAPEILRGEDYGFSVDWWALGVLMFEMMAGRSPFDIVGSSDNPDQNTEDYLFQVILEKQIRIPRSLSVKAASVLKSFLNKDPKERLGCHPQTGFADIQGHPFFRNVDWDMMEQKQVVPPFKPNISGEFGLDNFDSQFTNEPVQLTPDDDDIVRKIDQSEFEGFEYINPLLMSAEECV
Chain of HIPK3 (human) (Q9H422 whole entry, looked up): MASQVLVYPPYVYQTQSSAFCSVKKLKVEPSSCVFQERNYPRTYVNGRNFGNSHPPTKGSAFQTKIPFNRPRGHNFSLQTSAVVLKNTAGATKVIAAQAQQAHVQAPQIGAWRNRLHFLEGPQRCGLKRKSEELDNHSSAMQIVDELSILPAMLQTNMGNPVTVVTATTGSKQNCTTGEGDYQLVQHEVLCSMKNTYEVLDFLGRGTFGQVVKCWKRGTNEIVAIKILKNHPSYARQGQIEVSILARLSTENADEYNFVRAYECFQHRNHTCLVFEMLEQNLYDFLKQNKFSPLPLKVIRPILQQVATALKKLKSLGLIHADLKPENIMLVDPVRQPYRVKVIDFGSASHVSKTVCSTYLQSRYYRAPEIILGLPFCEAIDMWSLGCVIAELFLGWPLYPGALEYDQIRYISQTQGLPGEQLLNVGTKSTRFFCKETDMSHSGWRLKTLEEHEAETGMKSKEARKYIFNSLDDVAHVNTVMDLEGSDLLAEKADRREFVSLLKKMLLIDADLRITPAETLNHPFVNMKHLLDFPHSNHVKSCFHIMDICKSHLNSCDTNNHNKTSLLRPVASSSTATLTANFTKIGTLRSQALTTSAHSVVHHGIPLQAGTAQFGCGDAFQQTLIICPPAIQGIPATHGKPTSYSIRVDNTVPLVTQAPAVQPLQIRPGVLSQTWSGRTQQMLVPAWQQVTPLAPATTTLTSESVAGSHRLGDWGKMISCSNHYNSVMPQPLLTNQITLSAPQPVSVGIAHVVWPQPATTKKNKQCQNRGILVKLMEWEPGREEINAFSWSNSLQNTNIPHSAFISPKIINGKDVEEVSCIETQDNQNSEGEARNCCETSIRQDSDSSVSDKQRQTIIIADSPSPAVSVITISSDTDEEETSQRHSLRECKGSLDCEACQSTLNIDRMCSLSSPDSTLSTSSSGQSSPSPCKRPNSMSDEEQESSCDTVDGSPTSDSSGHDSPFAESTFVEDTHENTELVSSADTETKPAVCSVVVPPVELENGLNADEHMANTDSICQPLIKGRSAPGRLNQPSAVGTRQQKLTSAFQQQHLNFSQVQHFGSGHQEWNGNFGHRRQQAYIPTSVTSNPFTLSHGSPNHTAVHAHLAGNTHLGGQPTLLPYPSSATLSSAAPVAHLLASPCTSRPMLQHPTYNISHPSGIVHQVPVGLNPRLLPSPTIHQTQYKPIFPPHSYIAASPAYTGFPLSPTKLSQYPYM
Chain of CAMKK1 (human) (Q8N5S9 whole entry, looked up): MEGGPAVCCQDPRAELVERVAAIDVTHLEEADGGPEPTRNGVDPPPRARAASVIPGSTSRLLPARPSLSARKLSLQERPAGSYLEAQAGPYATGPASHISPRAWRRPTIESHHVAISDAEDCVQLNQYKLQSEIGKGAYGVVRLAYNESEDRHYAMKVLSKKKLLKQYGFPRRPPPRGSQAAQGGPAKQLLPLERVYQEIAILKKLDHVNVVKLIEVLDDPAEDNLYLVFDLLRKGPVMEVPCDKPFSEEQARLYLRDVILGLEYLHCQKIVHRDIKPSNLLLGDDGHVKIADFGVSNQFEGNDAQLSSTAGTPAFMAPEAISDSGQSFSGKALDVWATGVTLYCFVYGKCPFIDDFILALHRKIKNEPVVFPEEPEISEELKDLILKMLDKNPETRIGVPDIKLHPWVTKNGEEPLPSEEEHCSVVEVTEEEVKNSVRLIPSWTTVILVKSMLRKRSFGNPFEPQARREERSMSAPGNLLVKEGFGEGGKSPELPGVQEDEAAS
Chain of ALK (human) (Q9UM73 whole entry, looked up): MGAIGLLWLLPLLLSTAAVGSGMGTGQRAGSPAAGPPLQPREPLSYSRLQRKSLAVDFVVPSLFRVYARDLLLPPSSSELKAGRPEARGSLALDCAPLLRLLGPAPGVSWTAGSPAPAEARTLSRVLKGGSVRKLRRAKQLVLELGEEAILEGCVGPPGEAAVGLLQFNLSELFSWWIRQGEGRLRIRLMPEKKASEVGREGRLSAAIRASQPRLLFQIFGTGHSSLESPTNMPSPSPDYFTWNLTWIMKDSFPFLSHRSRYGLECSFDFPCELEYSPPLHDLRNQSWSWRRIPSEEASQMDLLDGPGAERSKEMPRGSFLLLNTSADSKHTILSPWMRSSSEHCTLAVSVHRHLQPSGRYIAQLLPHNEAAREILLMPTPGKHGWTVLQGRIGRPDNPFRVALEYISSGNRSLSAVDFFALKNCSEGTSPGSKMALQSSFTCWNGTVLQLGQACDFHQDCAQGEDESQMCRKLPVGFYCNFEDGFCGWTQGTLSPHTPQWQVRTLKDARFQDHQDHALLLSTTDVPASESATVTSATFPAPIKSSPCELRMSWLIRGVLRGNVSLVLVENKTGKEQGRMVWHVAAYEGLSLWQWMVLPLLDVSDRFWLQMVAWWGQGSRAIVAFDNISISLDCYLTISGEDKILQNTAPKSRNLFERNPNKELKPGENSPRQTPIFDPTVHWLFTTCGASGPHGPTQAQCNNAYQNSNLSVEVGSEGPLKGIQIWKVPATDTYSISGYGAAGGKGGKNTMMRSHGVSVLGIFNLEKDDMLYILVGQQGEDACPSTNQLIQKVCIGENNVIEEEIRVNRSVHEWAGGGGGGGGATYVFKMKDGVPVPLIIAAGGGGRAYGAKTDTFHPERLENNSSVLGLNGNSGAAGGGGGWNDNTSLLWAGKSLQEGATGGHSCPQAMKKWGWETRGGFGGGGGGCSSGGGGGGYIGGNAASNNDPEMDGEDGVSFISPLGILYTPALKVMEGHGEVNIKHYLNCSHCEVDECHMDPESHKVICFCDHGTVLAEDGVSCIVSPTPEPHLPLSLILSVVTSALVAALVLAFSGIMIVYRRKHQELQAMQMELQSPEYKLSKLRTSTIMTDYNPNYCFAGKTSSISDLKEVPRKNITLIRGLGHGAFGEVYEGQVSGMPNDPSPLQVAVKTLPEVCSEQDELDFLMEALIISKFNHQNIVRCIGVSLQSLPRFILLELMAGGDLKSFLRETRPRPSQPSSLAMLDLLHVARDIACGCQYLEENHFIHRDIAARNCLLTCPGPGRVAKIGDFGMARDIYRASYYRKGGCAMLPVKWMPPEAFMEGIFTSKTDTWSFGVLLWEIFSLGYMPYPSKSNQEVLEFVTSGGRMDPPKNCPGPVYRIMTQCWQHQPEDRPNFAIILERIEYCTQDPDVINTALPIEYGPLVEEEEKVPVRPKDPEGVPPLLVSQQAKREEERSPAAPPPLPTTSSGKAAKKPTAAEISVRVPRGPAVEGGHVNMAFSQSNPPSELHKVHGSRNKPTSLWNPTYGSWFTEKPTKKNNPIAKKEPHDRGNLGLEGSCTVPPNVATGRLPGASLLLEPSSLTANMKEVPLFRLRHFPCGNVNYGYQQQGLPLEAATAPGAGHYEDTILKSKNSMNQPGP
Chain of PNCK (human) (Q6P2M8 whole entry, looked up): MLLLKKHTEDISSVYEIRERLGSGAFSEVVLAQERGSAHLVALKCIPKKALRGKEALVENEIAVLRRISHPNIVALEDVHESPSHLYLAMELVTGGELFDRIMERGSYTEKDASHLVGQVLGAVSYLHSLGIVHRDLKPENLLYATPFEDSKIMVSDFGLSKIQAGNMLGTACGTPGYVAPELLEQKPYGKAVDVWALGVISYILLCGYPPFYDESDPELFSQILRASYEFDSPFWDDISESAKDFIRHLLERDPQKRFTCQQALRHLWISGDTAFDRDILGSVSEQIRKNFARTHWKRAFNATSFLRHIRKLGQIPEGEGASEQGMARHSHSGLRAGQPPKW
Chain of DYRK4 (human) (Q9NR20 whole entry, looked up): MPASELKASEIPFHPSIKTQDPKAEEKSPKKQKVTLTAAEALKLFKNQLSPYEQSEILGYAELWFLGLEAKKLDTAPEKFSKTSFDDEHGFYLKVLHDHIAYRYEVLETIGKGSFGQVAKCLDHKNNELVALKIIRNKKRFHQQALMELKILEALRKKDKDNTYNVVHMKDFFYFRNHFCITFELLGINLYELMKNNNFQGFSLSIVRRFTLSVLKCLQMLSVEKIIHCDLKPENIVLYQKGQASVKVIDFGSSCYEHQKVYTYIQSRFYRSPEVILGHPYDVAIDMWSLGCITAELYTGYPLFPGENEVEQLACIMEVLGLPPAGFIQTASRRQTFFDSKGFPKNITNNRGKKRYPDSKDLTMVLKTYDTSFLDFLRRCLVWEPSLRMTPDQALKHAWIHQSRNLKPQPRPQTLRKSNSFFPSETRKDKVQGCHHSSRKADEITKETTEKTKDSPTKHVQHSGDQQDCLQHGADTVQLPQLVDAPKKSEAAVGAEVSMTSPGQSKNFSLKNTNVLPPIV

CSc1nc(-c2ccc(F)cc2)c(-c2ccnc(NC(C)c3ccccc3)c2)[nH]1 (stereo unspecified)
residual activity [1]: 91.9% | residual activity [2]: 91.5% | residual activity [3]: 88.5% | residual activity [4]: 76.1% | residual activity [5]: 75.6% | residual activity [6]: 91.7% | residual activity [7]: 92.8% | residual activity [8]: 103% | residual activity [9]: 7.64% | residual activity [10]: 104% | residual activity [11]: 101% | residual activity [12]: 102% | residual activity [13]: 76.1% | residual activity [14]: 96% | residual activity [15]: 94.2% | residual activity [16]: 100% | residual activity [17]: 102% | residual activity [18]: 101% | residual activity [19]: 86.3% | residual activity [20]: 106% | residual activity [21]: 89.8% | residual activity [22]: 97.6% | residual activity [23]: 94.1% | residual activity [24]: 87.6% | residual activity [25]: 94.2% | residual activity [26]: 88.1% | residual activity [27]: 78% | residual activity [28]: 79.2% | residual activity [29]: 91.4% | residual activity [30]: 95.7% | residual activity [31]: 93.3% | residual activity [32]: 96.1% | residual activity [33]: 92.9% | residual activity [34]: 68% | residual activity [35]: 97.6% | residual activity [36]: 94.3% | residual activity [37]: 107% | residual activity [38]: 104% | residual activity [39]: 94.5% | residual activity [40]: 95.3% | residual activity [41]: 100% | residual activity [42]: 102%

Cc1cc2ncc(-c3ccccc3)nc2cc1C
residual activity [1]: 98% | residual activity [2]: 97.9% | residual activity [3]: 103% | residual activity [4]: 96.6% | residual activity [5]: 86.5% | residual activity [6]: 96.2% | residual activity [7]: 53.6% | residual activity [8]: 107% | residual activity [9]: 103% | residual activity [10]: 98% | residual activity [11]: 92.6% | residual activity [12]: 77.2% | residual activity [13]: 104% | residual activity [14]: 108% | residual activity [15]: 96.8% | residual activity [16]: 99.1% | residual activity [17]: 99.7% | residual activity [18]: 94.4% | residual activity [19]: 96.1% | residual activity [20]: 98.3% | residual activity [21]: 99.9% | residual activity [22]: 103% | residual activity [23]: 104% | residual activity [24]: 99.6% | residual activity [25]: 91.1% | residual activity [26]: 99.1% | residual activity [27]: 94.4% | residual activity [28]: 96% | residual activity [29]: 90.3% | residual activity [30]: 82.1% | residual activity [31]: 98% | residual activity [32]: 101% | residual activity [33]: 96.3% | residual activity [34]: 106% | residual activity [35]: 91.9% | residual activity [36]: 92.5% | residual activity [37]: 100% | residual activity [38]: 99.3% | residual activity [39]: 100% | residual activity [40]: 106% | residual activity [41]: 94.4% | residual activity [42]: 95.5%

CC(C)n1cnc2c(Nc3cccc(Cl)c3)nc(NCCO)nc21
residual activity [1]: 101% | residual activity [2]: 96.4% | residual activity [3]: 66.1% | residual activity [4]: 26.2% | residual activity [5]: 20.6% | residual activity [6]: 91.8% | residual activity [7]: 15.1% | residual activity [8]: 99.4% | residual activity [9]: 90.7% | residual activity [10]: 88.2% | residual activity [11]: 92.8% | residual activity [12]: 86.5% | residual activity [13]: 90.8% | residual activity [14]: 99.5% | residual activity [15]: 78.5% | residual activity [16]: 94.2% | residual activity [17]: 96.3% | residual activity [18]: 99.9% | residual activity [19]: 90.4% | residual activity [20]: 101% | residual activity [21]: 94.1% | residual activity [22]: 77.7% | residual activity [23]: 103% | residual activity [24]: 93.6% | residual activity [25]: 59.7% | residual activity [26]: 61.5% | residual activity [27]: 78.5% | residual activity [28]: 36.1% | residual activity [29]: 91.2% | residual activity [30]: 92.7% | residual activity [31]: 91.8% | residual activity [32]: 97.4% | residual activity [33]: 100% | residual activity [34]: 111% | residual activity [35]: 84.2% | residual activity [36]: 62.1% | residual activity [37]: 91% | residual activity [38]: 106% | residual activity [39]: 99.4% | residual activity [40]: 87.6% | residual activity [41]: 72.8% | residual activity [42]: 97%

— the kinase profiling compilation of Christmann-Franck et al. (2016)
